The source of these data is US8697739B2, “Bicyclic acetyl-CoA carboxylase inhibitors and uses thereof” (Novartis AG, priority 2010, dated 2014).

In general, IC50 refers to the concentration that gives 50% inhibition.

One experiment deals with T1, human acetyl-CoA carboxylase 2 (ACC2) (Homo sapiens, UniProt O00763).
T1 construct: The cDNA encoding amino acids 144 to 2458 of human acetyl-CoA carboxylase 2; made in house; host or cells: Sf9 insect cells (baculovirus, pFastBac1)
T1 sequence (O00763 144-2458): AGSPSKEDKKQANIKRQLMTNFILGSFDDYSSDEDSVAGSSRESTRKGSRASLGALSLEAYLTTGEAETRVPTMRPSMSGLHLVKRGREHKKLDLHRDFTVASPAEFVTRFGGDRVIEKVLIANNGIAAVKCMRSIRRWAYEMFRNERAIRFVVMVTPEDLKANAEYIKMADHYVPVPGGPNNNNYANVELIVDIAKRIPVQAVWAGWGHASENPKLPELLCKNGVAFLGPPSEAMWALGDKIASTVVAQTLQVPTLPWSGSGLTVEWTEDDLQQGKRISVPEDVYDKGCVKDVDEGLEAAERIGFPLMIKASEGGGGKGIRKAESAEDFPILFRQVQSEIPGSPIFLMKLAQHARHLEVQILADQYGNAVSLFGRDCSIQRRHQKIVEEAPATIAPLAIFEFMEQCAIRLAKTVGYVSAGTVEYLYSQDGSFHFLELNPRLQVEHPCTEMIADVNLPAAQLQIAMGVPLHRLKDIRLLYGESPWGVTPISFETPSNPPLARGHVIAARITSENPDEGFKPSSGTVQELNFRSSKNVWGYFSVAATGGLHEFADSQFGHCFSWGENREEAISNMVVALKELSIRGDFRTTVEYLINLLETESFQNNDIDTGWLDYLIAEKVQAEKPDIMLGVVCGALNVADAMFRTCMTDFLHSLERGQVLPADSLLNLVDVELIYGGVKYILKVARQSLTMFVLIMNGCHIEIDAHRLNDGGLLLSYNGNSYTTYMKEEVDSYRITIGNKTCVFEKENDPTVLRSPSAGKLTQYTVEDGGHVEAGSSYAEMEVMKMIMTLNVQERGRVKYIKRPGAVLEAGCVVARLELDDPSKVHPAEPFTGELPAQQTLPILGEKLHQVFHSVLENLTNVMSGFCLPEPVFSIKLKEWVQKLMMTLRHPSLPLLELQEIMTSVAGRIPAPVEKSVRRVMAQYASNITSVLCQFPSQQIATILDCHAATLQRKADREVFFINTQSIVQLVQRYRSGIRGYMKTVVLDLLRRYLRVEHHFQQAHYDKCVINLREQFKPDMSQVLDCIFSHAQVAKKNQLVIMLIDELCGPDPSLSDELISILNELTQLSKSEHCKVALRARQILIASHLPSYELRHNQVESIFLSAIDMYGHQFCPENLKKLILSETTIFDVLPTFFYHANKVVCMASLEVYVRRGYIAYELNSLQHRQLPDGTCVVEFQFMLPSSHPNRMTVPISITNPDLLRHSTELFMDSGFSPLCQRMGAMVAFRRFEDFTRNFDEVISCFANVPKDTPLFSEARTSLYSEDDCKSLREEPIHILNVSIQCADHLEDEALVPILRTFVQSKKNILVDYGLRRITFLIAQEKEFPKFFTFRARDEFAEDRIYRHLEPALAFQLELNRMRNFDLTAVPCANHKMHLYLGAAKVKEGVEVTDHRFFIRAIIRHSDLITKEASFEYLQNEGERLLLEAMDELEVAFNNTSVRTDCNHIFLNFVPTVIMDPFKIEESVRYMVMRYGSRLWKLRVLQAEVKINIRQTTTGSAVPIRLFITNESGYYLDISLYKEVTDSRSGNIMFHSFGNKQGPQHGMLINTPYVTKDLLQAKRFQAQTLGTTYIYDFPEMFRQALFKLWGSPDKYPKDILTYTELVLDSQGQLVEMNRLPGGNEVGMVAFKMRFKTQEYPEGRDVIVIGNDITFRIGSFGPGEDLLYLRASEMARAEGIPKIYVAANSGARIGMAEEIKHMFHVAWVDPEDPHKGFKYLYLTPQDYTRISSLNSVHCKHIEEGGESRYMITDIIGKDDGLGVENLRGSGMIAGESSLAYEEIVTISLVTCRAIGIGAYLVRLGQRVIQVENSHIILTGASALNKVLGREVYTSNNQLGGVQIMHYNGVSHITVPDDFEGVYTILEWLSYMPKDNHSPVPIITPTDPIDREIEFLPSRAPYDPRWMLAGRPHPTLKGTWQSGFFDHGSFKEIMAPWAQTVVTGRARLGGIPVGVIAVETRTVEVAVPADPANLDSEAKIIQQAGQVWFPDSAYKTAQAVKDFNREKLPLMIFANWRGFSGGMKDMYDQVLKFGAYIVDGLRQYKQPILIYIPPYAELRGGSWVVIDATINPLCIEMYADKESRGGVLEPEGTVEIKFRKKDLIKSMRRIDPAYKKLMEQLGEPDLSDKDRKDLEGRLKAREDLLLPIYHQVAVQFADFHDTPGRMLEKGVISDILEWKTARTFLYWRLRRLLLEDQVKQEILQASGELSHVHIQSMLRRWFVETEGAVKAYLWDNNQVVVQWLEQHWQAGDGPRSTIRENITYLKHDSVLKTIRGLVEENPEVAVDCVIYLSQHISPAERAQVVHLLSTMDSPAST
Put plainly: Acetyl-CoA carboxylase enzyme assay (malonyl-CoA formation by LC/MS/MS). It is filed as biochemical. To be noted: IC50 ACC2, recombinant human ACC2 (aa 144-2458). The gist of the method:
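Malonyl-CoA formation was read by LC/MS/MS MRM against a [13C3]-malonyl-CoA internal standard, after acetic acid quench. The enzyme was baculovirus/Sf9-expressed human ACC2 residues 144–2458, given 15 minutes room-temperature compound preincubation in HEPES pH 7.5 buffer with MgCl2, citrate and DTT. Substrate solution held 50 μM acetyl-CoA, 120 μM ATP and 2 mM KHCO3.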
On to `O=C([C@H]1CC[C@H](NS(=O)(=O)c2ccc3[nH]c(-c4ccccc4)nc3c2)CC1)N1CCC2(CC1)OCCCO2` [Example 622, N-((1r,4r)-4-(1,5-dioxa-9-azaspiro[5.5]undecane-9-carbonyl)cyclohexyl)-2-phenyl-1H-benzo[d]imidazole-5-sulfonamide], for which the IC50 was 411 nM.

The experiment is the same for the next values; noted with them: recombinant human ACC2 (aa 144-2458); read-out: IC50 ACC2.
As to `COCCNC(=O)c1ccc2cc(S(=O)(=O)N[C@H]3CC[C@H](C(=O)N[C@H](C)c4ccc(F)cc4)CC3)ccc2n1` [Example 207, 6-(N-((1R,4r)-4-((R)-1-(4-fluorophenyl)ethylcarbamoyl)cyclohexyl)sulfamoyl)-N-(2-methoxyethyl)quinoline-2-carboxamide], the IC50 came out at 355 nM.

Take `CCOc1ccc2cc(S(=O)(=O)N[C@H]3CC[C@H](C(=O)N4CCN(C(=O)OC(C)(C)C)C[C@@H]4C(=O)OC)CC3)ccc2n1` [Example 235, (R)-1-tert-butyl 3-methyl 4-((1r,4R)-4-(2-ethoxyquinoline-6-sulfonamido)cyclohexanecarbonyl)piperazine-1,3-dicarboxylate]: the IC50 is 95 nM.

For `O=C([C@H]1CC[C@H](NS(=O)(=O)c2ccc3c(c2)Cc2ccccc2-3)CC1)N1CCNC[C@@H]1c1ccccc1` [Example 244, N-((1S,4r)-4-((S)-2-phenylpiperazine-1-carbonyl)cyclohexyl)-9H-fluorene-2-sulfonamide], the IC50 was under 10 nM.

Regarding `COc1ccc(Nc2nc3cc(S(=O)(=O)N[C@H]4CC[C@H](c5nnc(C(C)(C)C)o5)CC4)ccc3[nH]2)cc1` [Example 596, N-((1r,4r)-4-(5-tert-butyl-1,3,4-oxadiazol-2-yl)cyclohexyl)-2-(4-methoxyphenylamino)-1H-benzo[d]imidazole-5-sulfonamide], the IC50 was 180 nM.

Regarding `C[C@@H]1CCCN1C(=O)[C@H]1CC[C@H](NS(=O)(=O)c2ccc3[nH]c(-c4ccccc4)nc3c2)CC1` [Example 125, N-((1R,4r)-4-((R)-2-methylpyrrolidine-1-carbonyl)cyclohexyl)-2-phenyl-1H-benzo[d]imidole-5-sulfonamide], the IC50 came to 58 nM.

Consider `C[C@H]1CCCCN1C(=O)[C@H]1CC[C@H](NS(=O)(=O)c2ccc3cc(-c4ccc(CCC(=O)O)cc4)n(C)c3c2)CC1` [Example 410, 3-(4-(1-methyl-6-(N-((1S,4r)-4-((S)-2-methylpiperidine-1-carbonyl)cyclohexyl)sulfamoyl)-1H-indol-2-yl)phenyl)propanoic acid], for which the IC50 is 20 nM.

On to `CN1CCN(c2ccc(-c3nc4cc(S(=O)(=O)Nc5ccc(-c6nnc(C(C)(C)C)o6)cc5)ccc4[nH]3)cc2)CC1` [Example 592, N-(4-(5-tert-butyl-1,3,4-oxadiazol-2-yl)phenyl)-2-(4-(4-methylpiperazin-1-yl)phenyl)-1H-benzo[d]imidazole-5-sulfonamide], for which the IC50 is 415 nM.

For `CCOc1ccc2cc(S(=O)(=O)NC3CCC(C(=O)NC(CO)c4ccccc4)CC3)ccc2n1` [Example 205, (1r,4S)-4-(2-ethoxyquinoline-6-sulfonamido)-N-((S)-2-hydroxy-1-phenylethyl)cyclohexanecarboxamide], the IC50 came out at 20 nM.

On to `Cc1cc(CO)ccc1-c1cc2ccc(S(=O)(=O)N[C@H]3CC[C@H](C(=O)N4CCNCC4)CC3)cc2[nH]1` [Example 312, 2-(4-(hydroxymethyl)-2-methylphenyl)-N-((1r,4r)-4-(piperazine-1-carbonyl)cyclohexyl)-1H-indole-6-sulfonamide], for which the IC50 is 599 nM.

Turning to `COC[C@@H](NC(=O)[C@H]1CC[C@H](NS(=O)(=O)c2ccc3cc(-c4ccccc4)n(C)c3c2)CC1)c1ccccc1` [Example 423, (1r,4S)-N-((S)-2-methoxy-1-phenylethyl)-4-(1-methyl-2-phenyl-1H-indole-6-sulfonamido)cyclohexanecarboxamide], the IC50 was determined as 40 nM.

Take `C[C@@H](NC(=O)[C@H]1CC[C@H](NS(=O)(=O)c2ccc3c(c2)N(C)CCO3)CC1)c1ccc(F)cc1` [Example 157, (1r,4R)-N-((R)-1-(4-fluorophenyl)ethyl)-4-(4-methyl-3,4-dihydro-2H-benzo[b][1,4]oxazine-6-sulfonamido)cyclohexanecarboxamide]: the IC50 is 38 nM.

For `O=S(=O)(Nc1ccc(-c2nnc(-c3ccccc3)o2)cc1)c1ccc2nc(-c3ccccc3)[nH]c2c1` [Example 518, 2-phenyl-N-(4-(5-phenyl-1,3,4-oxadiazol-2-yl)phenyl)-1H-benzo[d]imidazole-6-sulfonamide], the IC50 was determined as 3580 nM.

As for `O=C([C@H]1CC[C@H](NS(=O)(=O)c2ccc3cc(-c4ccccc4)[nH]c3c2)CC1)N1CCCCC1` [Example 375, 2-phenyl-N-((1r,4r)-4-(piperidine-1-carbonyl)cyclohexyl)-1H-indole-6-sulfonamide], the concentration for half-maximal inhibition (IC50) worked out at 75 nM.

For the compound `C[C@@H](NC(=O)[C@H]1CC[C@H](NS(=O)(=O)c2cnc3c(c2)N(C)CCN3)CC1)c1ccc(F)cc1` [Example 130, (1r,4R)-N-((R)-1-(4-fluorophenyl)ethyl)-4-(1-methyl-1,2,3,4-tetrahydropyrido[3,2-b]pyrazine-7-sulfonamido)cyclohexanecarboxamide], the half-maximal inhibitory concentration (IC50) turned out to be 59 nM.

With `CC(C)OC(=O)[C@H]1CC[C@H](NS(=O)(=O)c2ccc3[nH]c(-c4ccc(N5CCN(C)CC5)cc4)nc3c2)CC1` [Example 557, (1r,4r)-isopropyl 4-(2-(4-(4-methylpiperazin-1-yl)phenyl)-1H-benzo[d]imidazole-5-sulfonamido)cyclohexanecarboxylate], the concentration for half-maximal inhibition (IC50) was found to be 13 nM.

With `O=C([C@H]1CC[C@H](NS(=O)(=O)c2ccc3cc(-c4ccccc4)[nH]c3c2)CC1)N1CCNC(C(F)(F)F)C1` (some centres unmarked) [Example 323, 2-phenyl-N-((1r,4r)-4-(3-(trifluoromethyl)piperazine-1-carbonyl)cyclohexyl)-1H-indole-6-sulfonamide], the IC50 amounted to 55 nM.

`CCNC(=O)N1CCNc2ccc(S(=O)(=O)N[C@H]3CC[C@H](C(=O)N[C@H](C)c4ccc(F)cc4)CC3)cc21` [Example 239, N-ethyl-7-(N-((1R,4r)-4-((R)-1-(4-fluorophenyl)ethylcarbamoyl)cyclohexyl)sulfamoyl)-3,4-dihydroquinoxaline-1(2H)-carboxamide]: the half-maximal inhibitory concentration (IC50) turned out to be 130 nM.

For `CC(C)COC(=O)N1CCNc2ccc(S(=O)(=O)N[C@H]3CC[C@H](C(=O)N[C@H](C)c4ccc(F)cc4)CC3)cc21` [Example 217, isobutyl 7-(N-((1R,4r)-4-((R)-1-(4-fluorophenyl)ethylcarbamoyl)cyclohexyl)sulfamoyl)-3,4-dihydroquinoxaline-1(2H)-carboxylate], the IC50 came to 15 nM.

For the compound `CC(C)OC(=O)c1ccc(NS(=O)(=O)c2ccc3[nH]c(Nc4cccc(F)c4F)nc3c2)cc1` [Example 533, isopropyl 4-(2-(2,3-difluorophenylamino)-1H-benzo[d]imidazole-5-sulfonamido)benzoate], the IC50 is 641 nM.

For the compound `C[C@@H](NC(=O)[C@H]1CC[C@H](NS(=O)(=O)c2ccc3nc(-c4ccncc4)ccc3c2)CC1)c1ccc(F)cc1` [Example 39, (1r,4R)-N-((R)-1-(4-fluorophenyl)ethyl)-4-(2-(pyridin-4-yl)quinoline-6-sulfonamido)cyclohexanecarboxamide], the IC50 was 25 nM.

On to `Cc1cc(CO)ccc1-c1cc2ccc(S(=O)(=O)N[C@H]3CC[C@H](C(=O)N4CCN(C(=O)OC(C)(C)C)CC4)CC3)cc2[nH]1` [Example 310, tert-butyl 4-((1r,4r)-4-(2-(4-(hydroxymethyl)-2-methylphenyl)-1H-indole-6-sulfonamido)cyclohexanecarbonyl)piperazine-1-carboxylate], for which the IC50 was found to be 62 nM.

As for `C[C@@H](NC(=O)[C@H]1CC[C@H](NS(=O)(=O)c2ccc3nc(N4CCCCC4)ccc3c2)CC1)c1ccc(F)cc1` [Example 216, (1r,4R)-N-((R)-1-(4-fluorophenyl)ethyl)-4-(2-(piperidin-1-yl)quinoline-6-sulfonamido)cyclohexanecarboxamide], the concentration for half-maximal inhibition (IC50) was found to be 180 nM.

For the compound `C[C@@H](NC(=O)[C@H]1CC[C@H](NS(=O)(=O)c2ccc3c(Cl)c[nH]c3c2)CC1)c1ccc(F)cc1` [Example 26, (1r,4R)-4-(3-chloro-1H-indole-6-sulfonamido)-N—((R)-1-(4-fluorophenyl)ethyl)cyclohexanecarboxamide], the IC50 came out at 20 nM.

As for `C[C@@H](NC(=O)[C@H]1CC[C@H](NS(=O)(=O)c2cnc3ccccc3c2)CC1)c1ccccc1C(F)(F)F` [Example 46, (1r,4R)-4-(quinoline-3-sulfonamido)-N-((R)-1-(2-(trifluoromethyl)phenyl)ethyl)cyclohexanecarboxamide], the IC50 was determined as 9040 nM.

As to `Cc1ccccc1-c1cc2ccc(S(=O)(=O)N[C@H]3CC[C@H](C(=O)N4CCNC[C@@H]4c4ccccc4)CC3)cc2[nH]1` [Example 325, N-((1S,4r)-4-((S)-2-phenylpiperazine-1-carbonyl)cyclohexyl)-2-o-tolyl-1H-indole-6-sulfonamide], the IC50 was under 10 nM.

As for `CC1CC(C)CN(C(=O)[C@H]2CC[C@H](NS(=O)(=O)c3ccc4[nH]c(-c5ccccc5)nc4c3)CC2)C1` (some centres unmarked) [Example 626, N-((1r,4r)-4-(3,5-dimethylpiperidine-1-carbonyl)cyclohexyl)-2-phenyl-1H-benzo[d]imidazole-5-sulfonamide], the IC50 turned out to be 78 nM.

For `CCOc1ccc2cc(S(=O)(=O)N[C@H]3CC[C@](C)(C(=O)N[C@H](C)c4ccc(F)cc4)CC3)ccc2n1` [Example 231, (1r,4R)-4-(2-ethoxyquinoline-6-sulfonamido)-N-((R)-1-(4-fluorophenyl)ethyl)-1-methylcyclohexanecarboxamide], the IC50 is 10 nM.

As to `CC(C)OC(=O)c1ccc(NS(=O)(=O)c2ccc3[nH]c(Nc4ccc(Cl)cc4)nc3c2)cc1` [Example 529, isopropyl 4-(2-(4-chlorophenylamino)-1H-benzo[d]imidazole-5-sulfonamido)benzoate], the IC50 came out at 644 nM.
